Values joined by “and” are separate entries in the source; they are usually repeats but may differ in a detail not shown here. Identical values can stand only once. Like-named read-outs stand apart in the source and are kept apart here.
How the values were obtained:
[1] = system: formalin-induced nociceptive behavior; assay: Formalin test (spontaneous jerking of the injected hindpaw); type: in vivo, rat; settings: for in vivo IC50 per animal body weight: calculated from effective concentrations in formalin model; for IC50: locally administered concentration, coinjection with formalin
Description: All animal experiments were carried out in accordance with the “Guide for the Care and Use of Laboratory Animals” as adopted by the Bogomoletz Institute of Physiology Clinic of Animal Care and Use. The formalin test experiments were performed on 21-day-old male Wistar rats, weighing 40 ± 5 g according to the method described previously.[49],[50] Briefly, animal was acclimated to an acrylic observation chamber for at least 1 h before the injection of formalin (50 µl of 0.5% solution in 0.9% saline) into the dorsal surface of the right hindpaw. Immediately after the injection, each animal was returned to the observation chamber and its behavioral characteristics were recorded for 45 min. We noticed consistently observed type of response: spontaneous jerking of the injected paw. The number of jerks was measured for each 1-min block, using self-developed computer software.
Figure 8. Effects of subcutaneous Ap4A analogs on pain responses induced by intraplantar (right hindpaw) formalin injection. Rats were subcutaneously injected with formalin solution alone (0.5%, 50 µl, control) or coinjected with the formalin solution and solutions with AppCH2ppA (1 µM–100 µM, 100 µl) or AppNHppA (0.1 µM–100 µM, 100 µl). Age-matched control animals were injected with saline. (a) Time course of the effects of subcutaneous AppCH2ppA (left) and AppNHppA (right) on the number of the spontaneous jerkings of the injected paw. (b) Bar graphs of the effects of AppCH2ppA (b, c) and AppNHppA (d, e) on the integral number of spontaneous jerkings. Measurements were made during the acute phase (0–6 min) and tonic phase (7–45 min) of the formalin response. (f) Dose-response curves for AppCH2ppA (left) and AppNHppA (right) during tonic and acute phases. For each concentration 6–7 rats were used.

[2] = system: CFA-induced thermal hyperalgesia; assay: Hargreaves plantar test, CFA-induced thermal hyperalgesia; type: in vivo, rat; settings: 20 µM; for period after intraplantar injection in which antinociceptive effect was observed: inflamed hindpaw
Description: To induce chronic inflammatory hyperalgesia, rats were injected with complete Freund’s adjuvant (CFA, 100 μl of 50% solution) into the plantar surface of the right hindpaw 24 h prior to testing. Control animals were injected with 100 μl of pure saline. Injections of AppCH2ppA and AppNHppA (100 nM–100 μM) in 100 μl of 0.9% saline were made just before the beginning of the plantar test.
For intrathecal injection, a polyethylene-10 catheter was inserted into the rat’s subarachnoid space through a small incision at the cisterna magna, and the tip of the catheter was implanted at the L4 spinal segmental level. Animals were allowed to recover for at least four days before behavior tests. AppCH2ppA or vehicle (saline) was injected intrathecally (10 µl) and flushed with 10 µl of saline.
The Hargreaves technique[51] was used for thermal hyperalgesia studies (using the Ugo Basile Model 7370 Plantar Test). Paw withdrawal responses to noxious heat stimuli were measured in rats as described.[52] To measure response to noxious heat stimuli, each animal was placed in a Plexiglas chamber on a glass plate located above a light box. Radiant heat was applied by focused infrared (IR) beam to the middle of the plantar surface of rat hindpaw. When the animal lifted its foot, the IR beam was turned off. The time interval between the start of the IR beam and the foot lift was defined as the paw withdrawal latency. Each trial was repeated 13 times at 20-min intervals for each paw. A cut-off time of 30 s was used to prevent paw tissue damage.
Figure 10. Ap4A analogs reduced thermal hyperalgesia induced by complete Freund adjuvant (CFA) (Hargreaves plantar test). (a) Time course of the effects of subcutaneous injection of AppCH2ppA (20 µM) and AppNHppA (20 µM) on the paw withdrawal latency (PWL). […] (b) Bar graphs illustrating the effects of AppCH2ppA (20 µM) and AppNHppA (20 µM) on PWL. (c) Time course of effects of intraplantar and intrathecal administration of AppCH2ppA (20 µM) on PWL. […] (d) Bar graphs illustrating effects of intathecal and intraplantar administration of AppCH2ppA (20 µM) on the PWL (* vs. CFA, p < 0.05; *** vs. CFA, p < 0.001; ### vs. intrathecal, p < 0.001; seven rats for control, eight rats for CFA, six rats for intrathecal, and six rats for each compound for intraplantar injection were used).

IC50 ([1]; acute phase, read-out: IC50 in the acute phase of formalin test) | IC50 ([1]; tonic phase 7–45 min, read-out: IC50 in the tonic phase of formalin test) | IC50 ([1]; Rattus norvegicus, acute phase, read-out: IC50 in the acute phase of formalin test) | IC50 ([1]; Rattus norvegicus, tonic phase 7–45 min, read-out: IC50 in the tonic phase of formalin test) | SMILES | in vivo IC50 per animal body weight [1] | duration of antinociceptive effect, intraplantar ([2]; intraplantar) | pain inhibition, intraplantar administration ([2]; intraplantar) | time after intraplantar injection at which effect became potent ([2]; intraplantar) | period after intraplantar injection in which antinociceptive effect was observed ([2]; intraplantar) | duration of antinociceptive effect, intrathecal ([2]; intrathecal) | pain inhibition, intrathecal administration ([2]; intrathecal) | time after intrathecal injection at which effects were observed ([2]; intrathecal)
34700 ± 13200 nM | 290 ± 50 nM | – | – | Nc1ncnc2c1ncn2[C@@H]1O[C@H](COP(=O)(O)OP(=O)(O)CP(=O)(O)OP(=O)(O)OC[C@H]2O[C@@H](n3cnc4c(N)ncnc43)C(O)C2O)C(O)C1O (stereo partly drawn) [AppCH2ppA, diadenosine 5′,5′′′-P^1,P^4-(β,γ-methylene)tetraphosphate] | 0.72 nmol/kg and 0.61 µg/kg | 180 min | 58% | 20 min | ≤ 200 min | 60 min | 22% | 120 min
– | – | > 100000 nM | 110 ± 20 nM | Nc1ncnc2c1ncn2[C@@H]1O[C@H](COP(=O)(O)OP(=O)(O)NP(=O)(O)OP(=O)(O)OC[C@H]2O[C@@H](n3cnc4c(N)ncnc43)[C@H](O)[C@@H]2O)[C@@H](O)[C@H]1O [AppNHppA, diadenosine 5′,5′′′-P^1,P^4-(β,γ-imido)tetraphosphate] | 0.28 nmol/kg and 0.23 µg/kg | 180 min | – | 20 min | ≤ 200 min | – | – | –
